From ChEMBL document CHEMBL2417523, “One-pot microwave assisted synthesis of new 2-alkoxycarbonylmethylene-4-oxo-1,5-benzo-, naphtho-, and pyridodiazepines and assessment of their cytogenetic activity” (Eur J Med Chem, 2013) come the findings set out here.

For data set [1], the system named is Lymphocyte. Put plainly: Cytoprotective activity against human lymphocytes assessed as reduction in sister chromatid exchange frequency after 72 hrs by fluorescence/Geimsa method. The class given is functional, cell-based.
Data set [2] in a line: Cytogenetic activity against human lymphocytes assessed as cytostatic activity measured as proliferative rate index at 10 uM after 72 hrs by fluorescence/Geimsa method. The class given is cell-based. To be noted: lymphocyte.
For data set [3], the system named is Lymphocyte. Briefly: Cytoprotective activity against human lymphocytes assessed as reduction in sister chromatid exchange frequency at 10 uM after 72 hrs by fluorescence/Geimsa method. The class given is functional, cell-based.

The structures appear in SMILES notation. The source made the active and inactive calls. No cut-off for these calls is given here.

With `COC(=O)/C=C1/CC(=O)Nc2cc(C)c(C)cc2N1`, the Activity result in data set [1] was “Dose-dependent effect”.
Turning to `COC(=O)/C=C1/CC(=O)Nc2ccccc2N1`, the Activity entry in data set [1] was “Dose-dependent effect”.
Take `COC(=O)/C=C1/CC(=O)Nc2cc(Cl)ccc2N1`: the Activity result in data set [2] is “Toxic”; in data set [1] it was “Dose-dependent effect”. Further, in data set [3], the outcome was Active.
